Experimental data as given in patent publication US20150111833A1, “Method Of Treating An Ocular Disease And Compositions Effective For Treating An Ocular Disease” (Howard University, priority 2012, published 2015).

Test system: endophthalmitis
Assay: Combination therapy treatment of severe endophthalmitis in a human subject (case report)
Type: in vivo
Conditions: initial regimen without cyclosporin A: intravitreal Vancomycin and Ceftazidime, then Ceftazidime, Vancomycin and Prednisolone eye drops every two hours; over the next two days
Experimental: A uniocular subject was diagnosed with severe endophthalmitis in their only functioning eye. […] The subject was treated with an aggressive treatment regimen of antibiotics (Intra Vitreal injection of Vancomycin and Ceftazidime) followed by Ceftazidime eye drops. Vancomycin eye drops and steroid Prednisolone eye drops every two hours.
Cyclosporin A (sold as […]® from Allergan, Inc.) was added to the treatment regimen and was administered prior to administering the antibiotic and steroid eye drops.
The Ceftriaxone was added to the regimen to increase the aggressiveness of the therapy with the goal of preventing or eliminating any traces of infection in the retina, which can result in irreversible blindness.

Row | Compound | improvement of the subject
1 | CC(C)(O/N=C(\C(=O)N[C@@H]1C(=O)N2C(C(=O)[O-])=C(C[n+]3ccccc3)CS[C@H]12)c1csc(N)n1)C(=O)O [Ceftazidime] | no improvement
2 | C[C@]12C=CC(=O)C=C1CC[C@@H]1[C@@H]2[C@@H](O)C[C@@]2(C)[C@H]1CC[C@]2(O)C(=O)CO [Prednisolone] | no improvement
3 | CN[C@H](CC(C)C)C(=O)N[C@H]1C(=O)N[C@@H](CC(N)=O)C(=O)N[C@H]2C(=O)N[C@H]3C(=O)N[C@H](C(=O)N[C@H](C(=O)O)c4cc(O)cc(O)c4-c4cc3ccc4O)[C@H](O)c3ccc(c(Cl)c3)Oc3cc2cc(c3O[C@@H]2O[C@H](CO)[C@@H](O)[C@H](O)[C@H]2O[C@H]2C[C@](C)(N)[C@H](O)[C@H](C)O2)Oc2ccc(cc2Cl)[C@H]1O [Vancomycin] | no improvement
